This passage reports IC50 results from patent US8431593B2, “Heteroaryl amide derivatives” (H. Lundbeck A/S, priority 2006, dated 2013).

Structures are written as SMILES. Bounds are passed on as bounds.

For orientation: IC50 means the concentration that inhibits the measured activity by half.

The target of one experiment is T1, P2X7 receptor (Homo sapiens, UniProt Q99572).
T1 construct: host or cells: SH-SY5Y
T1 sequence (Q99572 1-595): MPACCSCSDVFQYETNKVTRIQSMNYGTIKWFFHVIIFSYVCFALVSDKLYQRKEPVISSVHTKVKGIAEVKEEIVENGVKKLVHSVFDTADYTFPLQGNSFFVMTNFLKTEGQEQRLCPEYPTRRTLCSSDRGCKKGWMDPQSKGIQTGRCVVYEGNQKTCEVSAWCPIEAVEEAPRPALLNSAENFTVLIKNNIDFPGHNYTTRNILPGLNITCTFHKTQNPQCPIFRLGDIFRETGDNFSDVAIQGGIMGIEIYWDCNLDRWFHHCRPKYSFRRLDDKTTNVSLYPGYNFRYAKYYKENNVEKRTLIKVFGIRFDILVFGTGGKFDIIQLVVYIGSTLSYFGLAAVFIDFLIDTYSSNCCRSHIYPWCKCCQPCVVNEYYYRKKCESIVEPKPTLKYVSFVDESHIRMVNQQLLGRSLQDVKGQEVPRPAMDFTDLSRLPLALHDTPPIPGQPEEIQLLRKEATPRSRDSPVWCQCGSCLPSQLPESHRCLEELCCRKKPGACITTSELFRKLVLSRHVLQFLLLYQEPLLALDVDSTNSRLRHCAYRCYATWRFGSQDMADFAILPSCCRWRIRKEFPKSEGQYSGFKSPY
The experiment can be described thus: P2X7 calcium mobilization assay, high throughput, antagonist activity (Example 4A). Format: cell-based.
Conditions: not given
Summed up: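 Cells plated at 100,000/well the day before were dye-loaded for 1 h, then incubated 1 h at room temperature with test compound before agonist-triggered calcium mobilization was read on FLIPR Tetra. Maximum RFU was corrected by subtracting the no-agonist control and related to the agonist-control response.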
Take `CC(C)CC(CNC(=O)c1cccc2nc(C(=O)N3CCC4(CC3)OCCO4)cn12)c1ccccc1` (centres unmarked) [Compound 263, 2-(1,4-dioxa-8-azaspiro[4.5]dec-8-ylcarbonyl)-N-(4-methyl-2-phenylpentyl)imidazo [1,2-a]pyridine-5-carboxamide]: the concentration for half-maximal inhibition (IC50) was less than 2000 nM.

`O=C(O)c1cnn(Cc2cn3c(C(=O)NCC45CC6CC(CC(C6)C4)C5)cccc3n2)c1` [Compound 203, 1-({5-[(adamantan-1-ylmethyl)carbamoyl]imi-dazo[1,2-a]pyridin-2-yl}methyl)-1H-pyrazole-4-carboxylic acid]: the IC50 is less than 2000 nM.

Consider `CC(C)CC(CNC(=O)c1cccc2nc(CC(=O)N3CCC4(CC3)OCCO4)cn12)c1ccccc1` (centres unmarked) [Compound 247, 2-[2-(1,4-dioxa-8-azaspiro[4.5]dec-8-yl)-2-oxoethyl]-N-(4-methyl-2-phenylpentyl)imidazo [1,2-a]pyridine-5-carboxamide], for which the IC50 was less than 2000 nM.

Staying with this experiment, now noted: 50% decrease in the fluorescence response of cells exposed to 80 μM 2′(3′)-O-(4-benzoyl-benzoyl)adenosine 5′-triphosphate; Example 4A; read-out: IC50.
`C[C@H]1CN(C(=O)Cc2cn3c(C(=O)NC[C@@H]4CC[C@@H]5C[C@H]4C5(C)C)cccc3n2)CCN1` [Compound 563, N-{[(1R,2R,5R)-6,6-dimethylbicyclo[3.1.1]hept-2-yl]methyl}-2-{2-[(3S)-3-methylpiperazin-1-yl]-2-oxoethyl}imidazo[1,2-a]pyridine-5-carboxamide]: the IC50 is less than 2000 nM.

Regarding `O=C(NCC12CC3CC(CC(C3)C1)C2)c1cccc2nc(C[S+]([O-])c3nnc[nH]3)cn12` (centres unmarked) [Compound 554, N-(adamantan-1-ylmethyl)-2-[(4H-1,2,4-triazol-3-ylsulfinyl)methyl]imidazo [1,2-a]pyridine-5-carboxamide], the IC50 is less than 2000 nM.

As to `CC1(C)[C@H]2CC[C@@H](CNC(=O)c3cccc4nc(C(=O)N5CCSCC5)cn34)[C@@H]1C2` [Compound 462, N-{[(1S,2R,5S)-6,6-dimethylbicyclo[3.1.1]hept-2-yl]methyl}-2-(thiomorpholin-4-ylcarbonyl)imidazo[1,2-a]pyridine-5-carboxamide], the IC50 is less than 2000 nM.

Staying with this experiment, now noted: 50% decrease in the fluorescence response of cells exposed to 80 μM of 2′(3′)-O-(4-benzoyl-benzoyl)adenosine 5′-triphosphate; Example 4A; read-out: IC50.
As for `CC(C)N(CCO)C(=O)c1cn2c(C(=O)NCC34CC5CC(CC(C5)C3)C4)cccc2n1` [Compound 697, 5-N-(adamantan-1-ylmethyl)-2-N-(2-hydroxyethyl)-2-N-isopropylimidazo[1,2-a]pyridine-2,5-dicarboxamide], the IC50 was less than 2000 nM.

Turning to `CC(C)(C)OC(=O)N[C@@H]1CCN(Cc2cn3c(C(=O)NCC(CC4CC4)c4ccccc4)cccc3n2)C1` (stereo in doubt) [Compound 776, tert-butyl [1-({5-[(3-cyclopropyl-2-phenylpropyl)carbamoyl]imidazo[1,2-a]pyridin-2-yl}methyl)pyrrolidin-3-yl]carbamate], the IC50 was less than 2000 nM.

With `CC(C(=O)N1CC[C@@H](N)C1)c1cn2c(C(=O)NCC34CC5CC(CC(C5)C3)C4)cccc2n1` (some centres unmarked) [Compound 752, N-(adamantan-1-ylmethyl)-2-[2-(3-aminopyrrolidin-1-yl)-1-methyl-2-oxoethyl]imidazo [1,2-a]pyridine-5-carboxamide], the IC50 is less than 2000 nM.

Consider `CC(C)CC(CNC(=O)c1cccc2nc(CC(=O)NC3CCCC3)cn12)c1ccc(Cl)cc1` (centres unmarked) [Compound 794, N-[2-(4-chlorophenyl)-4-methylpentyl]-2-[2-(cyclopentylamino)-2-oxoethyl]imidazo [1,2-a]pyridine-5-carboxamide], for which the IC50 was less than 2000 nM.

For the compound `CC(C)(O)C1CCCCN1C(=O)c1cn2c(C(=O)NCC34CC5CC(CC(C5)C3)C4)cccc2n1` (centres unmarked) [Compound 702, N-(adamantan-1-ylmethyl)-2-{[2-(1-hydroxy-1-methylethyl)piperidin-1-yl]carbonyl}imidazo[1,2-a]pyridine-5-carboxamide], the IC50 is less than 2000 nM.

With `CCN(CC)CCCNC(=O)c1cn2c(C(=O)NCC34CC5CC(CC(C5)C3)C4)cccc2n1` [Compound 658, 5-N-(adamantan-1-ylmethyl)-2-N-[3-(diethylamino)propyl] imidazo[1,2-a] pyridine-2,5-dicarboxamide], the IC50 was less than 2000 nM.

Take `O=C(NCC12CC3CC(CC(C3)C1)C2)c1cccc2nc(C(CC(=O)N3CCOCC3)C(=O)O)cn12` (centres unmarked) [Compound 803, 2-{5-[(adamantan-1-ylmethyl)carbamoyl]imidazo[1,2-a]pyridin-2-yl}-4-morpholin-4-yl-4-oxobutanoic acid]: the IC50 was less than 2000 nM.

For `O=C(NCCCN1CCOCC1)c1cn2c(C(=O)NCC34CC5CC(CC(C5)C3)C4)cccc2n1` [Compound 654, 5-N-(adamantan-1-ylmethyl)-2-N-(3-morpholin-4-ylpropyl)imidazo [1,2-a]pyridine-2,5-dicarboxamide], the IC50 is less than 2000 nM.

As to `CC(c1cn2c(C(=O)NCC34CC5CC(CC(C5)C3)C4)cccc2n1)c1nnn[nH]1` (centres unmarked) [Compound 770, N-(adamantan-1-ylmethyl)-2-[1-(1H-tetrazol-5-yl)ethyl]imidazo [1,2-a]pyridine-5-carboxamide], the IC50 is less than 2000 nM.

Staying with this experiment, now noted: 50% decrease in the fluorescence response of cells exposed to 80 μM of 2′(3′)-O-(4-benzoyl-benzoyl)adenosine 5′-triphosphate; determined as in Example 4A; read-out: IC50.
For `CCC(C)NC(=O)Cc1cn2c(C(=O)NCC3(c4ccc(Cl)cc4)CCCCC3)cccc2n1` (centres unmarked) [Compound 870, 2-[2-(sec-butylamino)-2-oxoethyl]-N-{[1-(4-chlorophenyl)cyclohexyl]methyl}imidazo [1,2-a]pyridine-5-carboxamide], the IC50 was less than 2000 nM.

`O=C(Cc1cn2c(C(=O)NCC3(c4ccc(Cl)cc4)CCCCC3)cccc2n1)NCC(F)(F)F` [Compound 875, N-{[1-(4-chlorophenyl)cyclohexyl]methyl}-2-{2-oxo-2-[(2,2,2-trifluoroethyl)amino]ethyl} imidazo[1,2-a] pyridine-5-carboxamide]: the IC50 was less than 2000 nM.

For `N[C@@H]1CCCN(C(=O)Cc2cn3c(C(=O)NCC4(c5cccnc5)CCCCC4)cccc3n2)C1` [Compound 947, 2-{2-[(3R)-3-aminopiperidin-1-yl]-2-oxoethyl}-N-[(1-pyridin-3-ylcyclohexyl)methyl] imidazo[1,2-a] pyridine-5-carboxamide], the IC50 is less than 2000 nM.

The experiment is the same for the next values; noted with them: P2X7 calcium mobilization, Example 4A; 50% decrease in the fluorescence response of cells exposed to 80 μM of (2′(3′)-O-(4-benzoyl-benzoyl)adenosine 5′-triphosephate); read-out: IC50.
With `O=C(NCC12CC3CC(CC(C3)C1)C2)c1ccn2cc(CCl)nc2c1` [Compound 1064, N-(adamantan-1-ylmethyl)-2-(chloromethyl)imidazo [1,2-a]pyridine-7-carboxamide], the IC50 was less than 2000 nM.

The experiment is the same for the next values; noted with them: SH-SY5Y cells; 50% decrease in fluorescence response to 80 μM BzATP; read-out: IC50.
In the case of `O=C(Cc1cn2c(C(=O)NCC34CC5CC(CC(C5)C3)C4)cccc2n1)NCCO` [Compound 26, N-(adamantan-1-ylmethyl)-2-{2-[(2-hydroxyethyl)amino]-2-oxoethyl}imidazo[1,2-a]pyridine-5-carboxamide], the half-inhibitory concentration (IC50) was less than 2000 nM.

With `N[C@@H]1CCN(CCc2cn3c(C(=O)NCC45CC6CC(CC(C6)C4)C5)cccc3n2)C1` [Compound 115, 2-[2-((R)-3-amino-pyrrolidin-1-yl)-ethyl]-imidazo[1,2-a]pyridine-5-carboxylic acid (adamantan-1-ylmethyl)-amide], the IC50 is less than 2000 nM.

For the compound `COCCN(C)C(=O)CNC(=O)c1cn2c(C(=O)NCC34CC5CC(CC(C5)C3)C4)cccc2n1` [Compound 75, 5-N-(adamantan-1-ylmethyl)--{2-[(2-methoxy-ethyl)(methyl)amino]-2-oxoethyl}imidazo[1,2-a]pyridine-2,5-dicarboxamide], the IC50 is less than 2000 nM.

Consider `O=CN1CCN(C(=O)Cc2cn3c(C(=O)NCC45CC6CC(CC(C6)C4)C5)cccc3n2)CC1` [Compound 167, N-(adamantan-1-ylmethyl)-2-[2-(4-formylpiperazin-1-yl)-2-oxoethyl]imidazo[1,2-a]pyridine-5-carboxamide], for which the 50% inhibitory concentration (IC50) is less than 2000 nM.

Take `CO[C@H]1CCN(C(=O)Cc2cn3c(C(=O)NCC45CC6CC(CC(C6)C4)C5)cccc3n2)C1` [Compound 175, N-(adamantan-1-ylmethyl)-2-{2-[(3S)-3-methoxypyrrolidin-1-yl]-2-oxoethyl}imidazo[1,2-a]pyridine-5-carboxamide]: the IC50 was less than 2000 nM.

Staying with this experiment, now noted: fluorescence response of cells exposed to 80 μM 2′(3′)-O-(4-benzoyl-benzoyl)adenosine 5′-triphosphate; Example 4A; read-out: IC50.
For `O=C(NCC12CC3CC(CC(C3)C1)C2)c1cccc2nc(CN3CC[C@@H](F)C3)cn12` [Compound 294, N-(adamantan-1-ylmethyl)-2-[(3-fluoropyrrolidin-1-yl)methyl]imidazo[1,2-a]pyridine-5-carboxamide], the IC50 was less than 2000 nM.

`CC1(C)[C@H]2CC[C@@H](CNC(=O)c3cccc4nc(C(=O)N5CCCC(CN)C5)cn34)[C@@H]1C2` (stereo partly drawn) [Compound 322, 2-{[3-(aminomethyl)piperidin-1-yl]carbonyl}-N-{[(1S,2R,5S)-6,6-dimethylbicyclo[3.1.1]hept-2-yl]methyl}imidazo[1,2-a]pyridine-5-carboxamide]: the IC50 is less than 2000 nM.
